The numbers were not newly measured in PubChem BioAssay AID1259409 (Chemical Carcinogenesis Research Information System (CCRIS), 2018), which cites them from elsewhere.

This data set concerns rodent chemically induced tumor inhibition, incidence and multiplicity. The data set is described as follows: CCRIS tumor inhibitor studies. The conditions noted are these: Promoter: NONE USED.

For `CC1=C(/C=C/C(C)=C/C=C/C(C)=C/C=C/C=C(C)/C=C/C=C(C)/C=C/C2=C(C)C(=O)CCC2(C)C)C(C)(C)CCC1=O`, the “tumour outcome (control, treated, inhibition, significance)” value is, setting by setting: (Carcinogen: 4-NITROQUINOLINE-1-OXIDE, 56-57-5, Dose [Inhibitor]: 0, 100 PPM IN DIET FOR 10 WK BEGINNING PRIOR TO CARCINOGEN TREATMENT (STUDY DURATION: 32 WK), Route [Inhibitor]: ORAL, Species: RAT, Strain/Sex: F344/MALE, Target Tissue: Type of Lesion: TONGUE: PAPILLOMA, Dose [Carcinogen]: 20 PPM IN DRINKING WATER FOR 8 WK) 4/24 (17%), 0/17 (0%), 100%, p<0.05; (Carcinogen: 4-NITROQUINOLINE-1-OXIDE, 56-57-5, Dose [Inhibitor]: 0, 100 PPM IN DIET FOR 10 WK BEGINNING PRIOR TO CARCINOGEN TREATMENT (STUDY DURATION: 32 WK), Route [Inhibitor]: ORAL, Species: RAT, Strain/Sex: F344/MALE, Target Tissue: Type of Lesion: TONGUE: SQUAMOUS CELL CARCINOMA, Dose [Carcinogen]: 20 PPM IN DRINKING WATER FOR 8 WK) 13/24 (54%), 0/17 (0%), 100%, p<0.05; (Carcinogen: 4-NITROQUINOLINE-1-OXIDE, 56-57-5, Dose [Inhibitor]: 0, 100 PPM IN DIET FOR 22 WK BEGINNING 1 WK POST CARCINOGEN TREATMENT (STUDY DURATION: 32 WK), Route [Inhibitor]: ORAL, Species: RAT, Strain/Sex: F344/MALE, Target Tissue: Type of Lesion: TONGUE: PAPILLOMA, Dose [Carcinogen]: 20 PPM IN DRINKING WATER FOR 8 WK) 4/24 (17%), 1/19 (5%), 71%, p<0.05; (Carcinogen: 4-NITROQUINOLINE-1-OXIDE, 56-57-5, Dose [Inhibitor]: 0, 100 PPM IN DIET FOR 22 WK BEGINNING 1 WK POST CARCINOGEN TREATMENT (STUDY DURATION: 32 WK), Route [Inhibitor]: ORAL, Species: RAT, Strain/Sex: F344/MALE, Target Tissue: Type of Lesion: TONGUE: SQUAMOUS CELL CARCINOMA, Dose [Carcinogen]: 20 PPM IN DRINKING WATER FOR 8 WK) 13/24 (54%), 1/19 (5%), 91%, p<0.05; (Carcinogen: 7,12-DIMETHYLBENZ[A]ANTHRACENE, 57-97-6, Dose [Inhibitor]: 0, 1130 MG/KG OF DIET FROM DAY 34 TO 54 OF AGE (STUDY DURATION: 200 D), Route [Inhibitor]: ORAL, Species: RAT, Strain/Sex: SPRAGUE-DAWLEY/FEMALE, Target Tissue: Type of Lesion: MAMMARY GLAND: ADENOCARCINOMA, Dose [Carcinogen]: 15 MG/RAT ONCE AT 55 D OF AGE) 93%, 80%, 14%, not significant; (Carcinogen: 7,12-DIMETHYLBENZ[A]ANTHRACENE, 57-97-6, Dose [Inhibitor]: 0, 1130 MG/KG OF DIET FROM DAY 34 TO 54 OF AGE (STUDY DURATION: 200 D), Route [Inhibitor]: ORAL, Species: RAT, Strain/Sex: SPRAGUE-DAWLEY/FEMALE, Target Tissue: Type of Lesion: MAMMARY GLAND: BENIGN TUMORS, Dose [Carcinogen]: 15 MG/RAT ONCE AT 55 D OF AGE) 28%, 30%, -7%, not calculated. For the same compound, the “tumour outcome (control, treated, inhibition, significance)” value reads like this: (Carcinogen: 7,12-DIMETHYLBENZ[A]ANTHRACENE, 57-97-6, Dose [Inhibitor]: 0, 3390 MG/KG OF DIET FROM DAY 34 TO 54 OF AGE (STUDY DURATION: 200 D), Route [Inhibitor]: ORAL, Species: RAT, Strain/Sex: SPRAGUE-DAWLEY/FEMALE, Target Tissue: Type of Lesion: MAMMARY GLAND: ADENOCARCINOMA, Dose [Carcinogen]: 15 MG/RAT ONCE AT 55 D OF AGE) 93%, 67%, 28%, p<0.05; (Carcinogen: 7,12-DIMETHYLBENZ[A]ANTHRACENE, 57-97-6, Dose [Inhibitor]: 0, 3390 MG/KG OF DIET FROM DAY 34 TO 54 OF AGE (STUDY DURATION: 200 D), Route [Inhibitor]: ORAL, Species: RAT, Strain/Sex: SPRAGUE-DAWLEY/FEMALE, Target Tissue: Type of Lesion: MAMMARY GLAND: BENIGN TUMORS, Dose [Carcinogen]: 15 MG/RAT ONCE AT 55 D OF AGE) 28%, 40%, -43%, not calculated; (Carcinogen: 7,12-DIMETHYLBENZ[A]ANTHRACENE, 57-97-6, Dose [Inhibitor]: 140 UG (1.5 MG/KG BW) IN 0.4 ML MINERAL OIL 3/WK FOR 28 WK (STUDY DURATION: 28 WK), Route [Inhibitor]: ORAL, Species: HAMSTER, Strain/Sex: SYRIAN/MALE, Target Tissue: Type of Lesion: SKIN: CARCINOMA, Dose [Carcinogen]: 0.1% IN HEAVY MINERAL OIL APPLIED TO BUCCAL POUCH 3/WK FOR 28 WK) 20/20 (100%), 2/20 (10%), 90%, not calculated; (Carcinogen: 7,12-DIMETHYLBENZ[A]ANTHRACENE, 57-97-6, Dose [Inhibitor]: 250 MG/KG IN DIET FOR 6 WK PRIOR TO CARCINOGEN DOSE AND CONTINUING FOR 21-22 WK POST CARCINOGEN DOSE (STUDY DURATION: 28, Route [Inhibitor]: ORAL, Species: RAT, Strain/Sex: SPRAGUE-DAWLEY/MALE, Target Tissue: Type of Lesion: SALIVARY GLAND: TUMOR, Dose [Carcinogen]: 1 MG IN 20 µL OLIVE OIL INJECTED INTO SUBMANDIBULAR GLAND ONCE) 20/28 (71%), 21/30 (70%), 1%, not significant; (Carcinogen: BENZO[A]PYRENE, 50-32-8, Dose [Inhibitor]: 0, 4.7 MICROMOLAR/D IN 0.1 ML PEANUT OIL BEGINNING 2 WK PRIOR TO CARCINOGEN TREATMENT AND CONTINUING TO 2 WK POST CARCIN, Route [Inhibitor]: GAVAGE, Species: MOUSE, Strain/Sex: SWISS/FEMALE, Target Tissue: Type of Lesion: FORESTOMACH: TUMOR, Dose [Carcinogen]: 1 MG 2/WK IN 0.1 ML PEANUT OIL FOR 4 WK) 20/20 (100%), 4/20 (20%), 80%, p<0.001; (Carcinogen: N-BUTYL-N-(4-HYDROXYBUTYL)NITROSAMINE, 3817-11-6, Dose [Inhibitor]: 0, 0.1% IN DIET BEGINNING 5 WK PRIOR TO CARCINOGEN TREATMENT AND CONTINUING FOR DURATION OF STUDY (STUDY DURATION: 7 MO), Route [Inhibitor]: ORAL, Species: MOUSE, Strain/Sex: B6D2F1/MALE, Target Tissue: Type of Lesion: BLADDER: CARCINOMA IN SITU, Dose [Carcinogen]: 5 MG IN SALINE SOLUTION 2/WK FOR 9 WK) 7/24 (29%), 5/24 (21%), 28%, not calculated. Besides, the “tumour outcome (control, treated, inhibition, significance)” value was 8/24 (33%), 10/24 (42%), -27%, not calculated (Carcinogen: N-BUTYL-N-(4-HYDROXYBUTYL)NITROSAMINE, 3817-11-6, Dose [Inhibitor]: 0, 0.1% IN DIET BEGINNING 5 WK PRIOR TO CARCINOGEN TREATMENT AND CONTINUING FOR DURATION OF STUDY (STUDY DURATION: 7 MO), Route [Inhibitor]: ORAL, Species: MOUSE, Strain/Sex: B6D2F1/MALE, Target Tissue: Type of Lesion: BLADDER: TRANSITIONAL CELL CARCINOMA, Dose [Carcinogen]: 5 MG IN SALINE SOLUTION 2/WK FOR 9 WK); 15/24 (63%), 15/24 (63%), 0%, not significant (Carcinogen: N-BUTYL-N-(4-HYDROXYBUTYL)NITROSAMINE, 3817-11-6, Dose [Inhibitor]: 0, 0.1% IN DIET BEGINNING 5 WK PRIOR TO CARCINOGEN TREATMENT AND CONTINUING FOR DURATION OF STUDY (STUDY DURATION: 7 MO), Route [Inhibitor]: ORAL, Species: MOUSE, Strain/Sex: B6D2F1/MALE, Target Tissue: Type of Lesion: BLADDER: TUMOR, Dose [Carcinogen]: 5 MG IN SALINE SOLUTION 2/WK FOR 9 WK); 15/36 (42%), 10/31 (33%), 21%, not significant (Carcinogen: N-BUTYL-N-(4-HYDROXYBUTYL)NITROSAMINE, 3817-11-6, Dose [Inhibitor]: 0, 50 PPM IN DRINKING WATER FOR 2O WK BEGINNING 1 WK POST CARCINOGEN TREATMENT (STUDY DURATION: 41 WK), Route [Inhibitor]: ORAL, Species: MOUSE, Strain/Sex: ICR/MALE, Target Tissue: Type of Lesion: URINARY BLADDER: CARCINOMA, Dose [Carcinogen]: 250 PPM IN DRINKING WATER FOR 20 WK); 2/36 (6%), 3/31 (10%), -67%, not significant (Carcinogen: N-BUTYL-N-(4-HYDROXYBUTYL)NITROSAMINE, 3817-11-6, Dose [Inhibitor]: 0, 50 PPM IN DRINKING WATER FOR 20 WK BEGINNING 1 WK POST CARCINOGEN TREATMENT (STUDY DURATION: 41 WK), Route [Inhibitor]: ORAL, Species: MOUSE, Strain/Sex: ICR/MALE, Target Tissue: Type of Lesion: URINARY BLADDER: PAPILLOMA, Dose [Carcinogen]: 250 PPM IN DRINKING WATER FOR 20 WK); 100%, 100%, 0%, not significant (Carcinogen: N-METHYL-N-NITROSOUREA, 684-93-5, Dose [Inhibitor]: 0, 1130 MG/KG OF DIET BEGINNING 2 D POST CARCINOGEN DOSE AND CONTINUING FOR DURATION OF STUDY (STUDY DURATION: 90 D), Route [Inhibitor]: ORAL, Species: RAT, Strain/Sex: SPRAGUE-DAWLEY/FEMALE, Target Tissue: Type of Lesion: MAMMARY GLAND: ADENOCARCINOMA, Dose [Carcinogen]: 45 MG/KG BW ONCE AT 50 D OF AGE); 100%, 90%, 10%, not calculated (Carcinogen: N-METHYL-N-NITROSOUREA, 684-93-5, Dose [Inhibitor]: 0, 3390 MG/KG OF DIET BEGINNING 2 D POST CARCINOGEN DOSE AND CONTINUING FOR DURATION OF STUDY (STUDY DURATION: 90 D), Route [Inhibitor]: ORAL, Species: RAT, Strain/Sex: SPRAGUE-DAWLEY/FEMALE, Target Tissue: Type of Lesion: MAMMARY GLAND: ADENOCARCINOMA, Dose [Carcinogen]: 45 MG/KG BW ONCE AT 50 D OF AGE).
